Laboratory results reported in patent US11673897B2, “Compounds for the treatment of kinase-dependent disorders” (Exelixis, Inc., priority 2018, dated 2023).

Tests used:
Human Axl = Human Axl (Homo sapiens (Human), UniProt P30530, Q764R); test: Human AXL kinase assay (33P radiometric, KinaseProfiler); assay type: biochemical; details: 10 μM ATP
Description: Kinase activity and compound inhibition were investigated using the ^33P-Phosphoryl transfer radiometric kinase assay, performed using the KinaseProfiler™ service of Eurofins Pharma Discovery Services UK Limited. Dose-response experiments were performed using nine compound concentrations in a 96-well microtiter plate. For each assay, all compounds were prepared to a 50× final assay concentration (50 μM) in 100% DMSO, then diluted in a half-log series, with the final top concentration at 1 μM. This working stock of the compound was added to the assay well as the first component in the reaction, followed by the remaining components as detailed in the following assay protocols below. The positive control wells (100% kinase activity) contain all components of the reaction including 2% DMSO (control for solvent effects), except the compound of interest. Blank wells contain all components of the reaction, with the reference inhibitor, staurosporine. This reference compound was used to abolish kinase activity and generated the 0% kinase activity base-line. IC50 values were calculated by nonlinear regression analysis using the sigmoidal dose-response (variable slope) curve fit on XLFit version 5.3 (ID Business Solutions).
Human Axl (residues H473-A894 with Q764R, 161 nM) was incubated with 8 mM MOPS pH 7.0, 0.2 mM EDTA, 250 μM KKSRGDYMTMQIG (SEQ ID NO. 43), 10 mM magnesium acetate and 10 μM [γ-33P-ATP]. The reaction was initiated by the addition of the Mg/ATP mix. After incubation for 40 minutes at room temperature, the reaction was stopped by the addition of phosphoric acid to a concentration of 0.5%. A reaction aliquot of 10 μL was then spotted onto a P30 filtermat and washed four times for 4 minutes in 0.425% phosphoric acid and once in methanol prior to drying and scintillation counting. Incorporated ^33P was measured using the Wallac Microbeta scintillation counter (Perkin Elmer).

Met = Met (Homo sapiens (Human), UniProt P08581); test: Met autophosphorylation ELISA in PC-3 cells; assay type: cell-based; details: cellular, HGF-stimulated, phospho-Met ELISA, read-out: c-Met IC50
How it was run: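 PC-3 cells serum-starved 3 h were treated 1 h with an 8-point compound series (0.3% DMSO), then stimulated 10 min with 100 ng/mL human HGF. Phospho-Met (panTyr) in lysates was measured by sandwich ELISA against DMSO (100%) and reference-inhibitor (0%) controls, and IC50 came from a 4-parameter logistic fit.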

Mer = Mer (Homo sapiens (Human), UniProt Q12866); test: Mer autophosphorylation ELISA in transient transfected 293A cells; assay type: cell-based; details: cellular, MERTK-transfected 293A cells, phospho-Mer ELISA
How it was run: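 293A cells transiently transfected with human MERTK DNA, then treated 1 h with 8-point compound dilutions in serum-free medium (0.3% DMSO). Phospho-Mer in lysates quantified by sandwich ELISA against phospho-Mer standard; normalised to DMSO (100%) and reference inhibitor (0%), IC50 from 4-parameter logistic fit.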

Chain of Mer (Q12866 21-999): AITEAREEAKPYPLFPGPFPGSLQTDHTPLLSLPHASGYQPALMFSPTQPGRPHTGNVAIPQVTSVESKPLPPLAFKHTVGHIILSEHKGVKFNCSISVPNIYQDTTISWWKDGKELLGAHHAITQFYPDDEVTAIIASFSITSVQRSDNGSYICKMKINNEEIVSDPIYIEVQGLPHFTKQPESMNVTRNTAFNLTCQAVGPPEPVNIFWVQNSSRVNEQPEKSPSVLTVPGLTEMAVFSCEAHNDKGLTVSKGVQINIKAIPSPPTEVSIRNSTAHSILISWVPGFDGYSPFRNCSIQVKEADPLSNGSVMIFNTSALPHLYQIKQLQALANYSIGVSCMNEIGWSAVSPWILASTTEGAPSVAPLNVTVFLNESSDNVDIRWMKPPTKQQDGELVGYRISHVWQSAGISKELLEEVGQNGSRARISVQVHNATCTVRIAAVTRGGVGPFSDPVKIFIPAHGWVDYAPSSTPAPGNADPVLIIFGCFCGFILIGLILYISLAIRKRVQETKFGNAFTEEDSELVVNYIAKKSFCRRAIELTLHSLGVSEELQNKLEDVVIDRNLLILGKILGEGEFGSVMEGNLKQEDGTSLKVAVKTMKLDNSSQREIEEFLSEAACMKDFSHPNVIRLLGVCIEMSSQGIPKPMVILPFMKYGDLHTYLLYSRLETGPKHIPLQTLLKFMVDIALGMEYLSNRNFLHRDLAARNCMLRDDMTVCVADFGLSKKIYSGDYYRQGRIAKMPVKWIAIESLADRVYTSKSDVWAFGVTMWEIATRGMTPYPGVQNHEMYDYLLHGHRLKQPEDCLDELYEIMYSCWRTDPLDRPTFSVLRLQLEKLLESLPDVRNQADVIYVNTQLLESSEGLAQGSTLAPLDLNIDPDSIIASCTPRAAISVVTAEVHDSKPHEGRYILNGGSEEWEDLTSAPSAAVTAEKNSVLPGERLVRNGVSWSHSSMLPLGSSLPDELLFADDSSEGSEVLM
Chain of Met (P08581 25-1390): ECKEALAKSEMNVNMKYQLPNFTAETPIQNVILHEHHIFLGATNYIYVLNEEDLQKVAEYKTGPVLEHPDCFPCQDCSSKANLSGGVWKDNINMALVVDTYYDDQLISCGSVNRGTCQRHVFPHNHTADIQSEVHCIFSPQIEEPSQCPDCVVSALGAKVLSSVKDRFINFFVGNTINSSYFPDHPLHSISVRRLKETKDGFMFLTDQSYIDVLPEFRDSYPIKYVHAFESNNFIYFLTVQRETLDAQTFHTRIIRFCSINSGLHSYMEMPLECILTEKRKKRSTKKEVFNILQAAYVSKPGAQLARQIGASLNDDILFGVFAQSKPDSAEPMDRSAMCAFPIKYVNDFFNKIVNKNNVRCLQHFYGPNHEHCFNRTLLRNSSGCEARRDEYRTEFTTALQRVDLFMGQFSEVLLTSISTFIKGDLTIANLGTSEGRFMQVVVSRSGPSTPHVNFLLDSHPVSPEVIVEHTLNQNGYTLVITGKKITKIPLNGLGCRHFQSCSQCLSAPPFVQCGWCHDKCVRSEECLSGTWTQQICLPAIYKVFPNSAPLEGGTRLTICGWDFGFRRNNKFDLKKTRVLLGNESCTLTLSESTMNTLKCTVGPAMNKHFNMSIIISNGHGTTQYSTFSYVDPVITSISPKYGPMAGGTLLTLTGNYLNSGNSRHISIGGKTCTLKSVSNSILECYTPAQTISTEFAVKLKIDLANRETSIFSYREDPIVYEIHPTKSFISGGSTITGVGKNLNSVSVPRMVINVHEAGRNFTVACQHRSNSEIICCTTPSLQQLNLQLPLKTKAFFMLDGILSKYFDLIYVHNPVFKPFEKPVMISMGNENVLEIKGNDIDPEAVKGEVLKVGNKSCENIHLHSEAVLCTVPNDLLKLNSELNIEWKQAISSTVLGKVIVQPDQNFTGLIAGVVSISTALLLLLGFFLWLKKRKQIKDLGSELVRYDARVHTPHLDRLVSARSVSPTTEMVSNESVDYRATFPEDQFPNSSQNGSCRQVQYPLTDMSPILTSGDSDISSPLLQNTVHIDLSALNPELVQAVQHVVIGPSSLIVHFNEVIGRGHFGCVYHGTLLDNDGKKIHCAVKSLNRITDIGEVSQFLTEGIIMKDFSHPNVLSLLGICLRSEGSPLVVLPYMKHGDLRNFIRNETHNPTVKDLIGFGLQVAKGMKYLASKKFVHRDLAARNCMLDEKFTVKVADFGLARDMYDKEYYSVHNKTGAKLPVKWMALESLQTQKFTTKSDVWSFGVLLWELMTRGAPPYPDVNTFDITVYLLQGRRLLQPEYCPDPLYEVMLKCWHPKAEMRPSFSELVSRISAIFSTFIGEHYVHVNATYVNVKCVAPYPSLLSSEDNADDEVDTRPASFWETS
Chain of Human Axl (P30530 473-894 Q764R): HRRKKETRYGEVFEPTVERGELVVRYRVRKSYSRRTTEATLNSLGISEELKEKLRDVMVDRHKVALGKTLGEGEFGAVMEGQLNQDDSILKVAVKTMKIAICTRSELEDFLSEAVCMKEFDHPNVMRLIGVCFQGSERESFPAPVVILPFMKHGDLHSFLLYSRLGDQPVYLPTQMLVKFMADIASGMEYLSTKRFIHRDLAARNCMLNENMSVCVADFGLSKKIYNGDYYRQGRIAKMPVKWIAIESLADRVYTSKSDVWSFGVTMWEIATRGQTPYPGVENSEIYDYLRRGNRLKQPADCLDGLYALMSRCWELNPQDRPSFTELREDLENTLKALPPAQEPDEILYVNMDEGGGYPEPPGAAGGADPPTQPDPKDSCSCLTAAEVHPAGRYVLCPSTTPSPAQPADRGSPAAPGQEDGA

| Compound | IC50 (Human Axl) | IC50 (Met) | IC50 (Mer) |
| --- | --- | --- | --- |
| COc1cc2nccc(Oc3ccc(NC(=O)C4(C(=O)Nc5ccc(F)cc5)CC4)cn3)c2cc1C(N)=O [Compound 16, 1-N′-[6-(6-Carbamoyl-7-methoxyquinolin-4-yl)oxypyridin-3-yl]-1-N-(4-fluorophenyl)-cyclopropane-1,1-dicarboxamide] | 10 to 100 nM | 100 to 300 nM |  |
| CNC(=O)c1cc2c(Oc3ccc(NC(=O)C4(C(=O)Nc5ccc(F)cc5)CC4)cn3)ccnc2cc1OC [Compound 17, 1-N-(4-Fluorophenyl)-1-N′-[6-[7-methoxy-6-(methylcarbamoyl)quinolin-4-yl]oxypyridin-3-yl]cyclopropane-1,1-dicarboxamide] | 10 to 100 nM | 100 to 300 nM |  |
| COc1cc2nccc(Oc3ncc(NC(=O)C4(C(=O)Nc5ccc(F)cc5)CC4)cc3Cl)c2nc1OC [Compound 80, 1-N′-[5-Chloro-6-[(6,7-dimethoxy-1,5-naphthyridin-4-yl)oxy]pyridin-3-yl]-1-N-(4-fluorophenyl)cyclopropane-1,1-dicarboxamide] | 10 to 100 nM | 10 to 100 nM | 100 to 300 nM |
| COc1cc2nccc(Oc3ccc(NC(=O)C4(C(=O)Nc5ccc(F)cc5)CC4)cn3)c2nc1OC [Compound 81, 1-N′-[6-[(6,7-Dimethoxy-1,5-naphthyridin-4-yl)oxy]pyridin-3-yl]-1-N-(4-fluorophenyl)cyclopropane-1,1-dicarboxamide] | 10 to 100 nM | 100 to 300 nM |  |
| COc1cc2nccc(Oc3ncc(NC(=O)C4(C(=O)Nc5ccc(F)cc5)CC4)cc3F)c2nc1OC [Compound 82, 1-N′-[6-[(6,7-Dimethoxy-1,5-naphthyridin-4-yl)oxy]-5-fluoropyridin-3-yl]-1-N-(4-fluorophenyl)cyclopropane-1,1-dicarboxamide] | ≤ 10 nM | 10 to 100 nM | 10 to 100 nM |

The remaining lines, values ahead:

| IC50 (Human Axl) | IC50 (Met) | IC50 (Mer) | Compound |
| --- | --- | --- | --- |
| ≤ 10 nM | 100 to 300 nM |  | COC(=O)c1cc2c(Oc3ccc(NC(=O)C4(C(=O)Nc5ccc(F)cc5)CC4)cn3)ccnc2cc1OC [Compound 10, Methyl 4-[5-[[1-[(4-fluorophenyl)carbamoyl]cyclopropanecarbonyl]-amino]pyridin-2-yl]oxy-7-methoxyquinoline-6-carboxylate] |
| ≤ 10 nM | 10 to 100 nM | 10 to 100 nM | COC(=O)c1cc2c(Oc3ncc(NC(=O)C4(C(=O)Nc5ccc(F)cc5)CC4)cc3Cl)ccnc2cc1OC [Compound 11, Methyl 4-[3-chloro-5-[[1-[(4-fluorophenyl)carbamoyl]cyclopropanecarbonyl]-amino]pyridin-2-yl]oxy-7-methoxyquinoline-6-carboxylate] |
| ≤ 10 nM | 10 to 100 nM | 10 to 100 nM | COc1cc2nccc(Oc3ncc(NC(=O)C4(C(=O)Nc5ccc(F)cc5)CC4)cc3Cl)c2cc1C(N)=O [Compound 18, 1-N′-[6-(6-Carbamoyl-7-methoxyquinolin-4-yl)oxy-5-chloropyridin-3-yl]-1-N-(4-fluorophenyl)cyclopropane-1,1-dicarboxamide] |
| ≤ 10 nM | 10 to 100 nM | 10 to 100 nM | COc1cc2nccc(Oc3ccc(NC(=O)C4(C(=O)Nc5ccc(F)cc5)CC4)cn3)c2cc1-c1cn[nH]c1 [Compound 60, 1-N-(4-Fluorophenyl)-1-N′-[6-[7-methoxy-6-(1H-pyrazol-4-yl)quinolin-4-yl]oxypyridin-3-yl]cyclopropane-1,1-dicarboxamide] |
